Data published in US20230114728A1 (Venatorx Pharmaceuticals, Inc., priority 2019, published 2023).
Values after ≈ are worked out from the molar mass of the structure shown.

Tests used:
P. aeruginosa PBP3 = target: T1, P. aeruginosa PBP3 (Pseudomonas aeruginosa, UniProt G3XD46); assay: Bocillin-FL fluorescence polarization competition binding assay, P. aeruginosa PBP3; settings: fluorescence polarization competition binding assay using Bocillin-FL
T1 construct: made in house
In short: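 Binding of boronic acid inhibitors to purified Pseudomonas aeruginosa (PA01) PBP3 was measured by fluorescence polarization competition with Bocillin-FL, a fluorescent penicillin V. Reactions of 80 μl contained 0.75 μM PBP3 and 0.1 μM Bocillin-FL in 50 mM Hepes (pH 8.0), 300 mM NaCl and 5% (v/v) glycerol, in black 384-well plates. FP (Excitation 490 nm, Emission 520 nm) was read for up to 60 minutes. EC50 is the concentration that halves PBP-bound Bocillin-FL.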

A. baumannii ATCC 19606 = assay: Broth microdilution MIC in CAMHB; format: cell-based; settings: Acinetobacter baumannii, ATCC19606; MHB; read-out: Minimum Inhibitory Concentration, A. baumannii ATCC 19606
In short: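 Hyper-permeable or efflux-deficient strains serve to probe outer-membrane penetration. Growth inhibition is scored visually after 16-20 h at 37° C in CAMHB, starting from 2-8×10^5 CFU/mL.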

E. coli 901C = assay: Broth microdilution MIC in CAMHB; format: cell-based; settings: Escherichia coli; E. coli 901C (hyper-permeable); MHB; read-out: Minimum Inhibitory Concentration, E. coli 901C
In short: (§1)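 Colonies from cation-adjusted Mueller Hinton agar are grown in broth (3-5 h, 37° C), adjusted by OD600, and added at 2-8×10^5 CFU/mL to 2-fold compound dilutions. After 16-20 h at 37° C, the lowest concentration without growth is taken as MIC.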

E. coli AG100A = assay: Broth microdilution MIC in CAMHB; format: cell-based; settings: Escherichia coli, read-out: Minimum Inhibitory Concentration, E. coli AG100A
In short: as §1

E. coli AG100 = assay: Broth microdilution MIC in CAMHB; format: cell-based; settings: Escherichia coli; E. coli AG100 (wild-type parent); MHB; read-out: Minimum Inhibitory Concentration, E. coli AG100
In short: as §1

[1] = tested on: K. pneumoniae 848844 producing SHV-11 and KPC-2; assay: Broth microdilution MIC in CAMHB; format: cell-based; settings: Klebsiella pneumoniae, read-out: Minimum Inhibitory Concentration, K. pneumoniae 848844
In short: as §1

[2] = tested on: K. pneumoniae UMM producing SHV-5 and KPC-2; assay: Broth microdilution MIC in CAMHB; format: cell-based; settings: Klebsiella pneumoniae, read-out: Minimum Inhibitory Concentration, K. pneumoniae UMM
In short: as §1

[3] = tested on: P. aeruginosa (ΔmexAB-oprM); assay: Broth microdilution MIC in CAMHB; format: cell-based; settings: Pseudomonas aeruginosa, read-out: Minimum Inhibitory Concentration, P. aeruginosa ΔmexAB-OprM
In short: as §1

P. aeruginosa ATCC 27853 = assay: Broth microdilution MIC in CAMHB; format: cell-based; settings: Pseudomonas aeruginosa, ATCC27853; MHB; read-out: Minimum Inhibitory Concentration, P. aeruginosa ATCC 27853
In short: as §1

T1 sequence (G3XD46 whole entry): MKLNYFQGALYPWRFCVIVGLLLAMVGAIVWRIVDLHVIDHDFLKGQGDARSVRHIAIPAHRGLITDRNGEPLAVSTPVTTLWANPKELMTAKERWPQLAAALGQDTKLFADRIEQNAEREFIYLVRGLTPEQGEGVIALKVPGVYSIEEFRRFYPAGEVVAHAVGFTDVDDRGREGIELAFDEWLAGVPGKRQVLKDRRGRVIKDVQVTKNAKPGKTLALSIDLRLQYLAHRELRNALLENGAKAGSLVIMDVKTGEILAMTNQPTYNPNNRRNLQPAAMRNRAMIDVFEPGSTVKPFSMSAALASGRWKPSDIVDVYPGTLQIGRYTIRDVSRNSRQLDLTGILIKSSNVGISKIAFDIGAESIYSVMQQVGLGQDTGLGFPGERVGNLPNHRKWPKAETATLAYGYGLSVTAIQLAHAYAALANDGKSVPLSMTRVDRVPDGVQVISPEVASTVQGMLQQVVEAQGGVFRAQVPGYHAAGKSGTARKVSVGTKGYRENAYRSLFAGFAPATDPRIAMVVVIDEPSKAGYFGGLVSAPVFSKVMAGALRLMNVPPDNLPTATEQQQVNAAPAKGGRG

Row | Structure (SMILES) | P. aeruginosa PBP3 Potency (P. aeruginosa PBP3) | MIC (A. baumannii ATCC 19606) [µg/mL] | MIC (E. coli 901C) [µg/mL] | MIC (E. coli AG100A) [µg/mL] | MIC (E. coli AG100) [µg/mL] | MIC [1] [µg/mL] | MIC [2] [µg/mL] | MIC [3] [µg/mL] | MIC (P. aeruginosa ATCC 27853) [µg/mL]
1 | CCN1CCN(C(=O)NC(C(=O)N[C@H]2Cc3cccc(C(=O)O)c3OB2O)c2ccc(C(N)=O)c(O)c2)C(=O)C1=O (stereo partly drawn) [Example 45, (3R)-3-(2-(4-carbamoyl-3-hydroxyphenyl)-2-(4-ethyl-2,3-dioxopiperazine-1-carboxamido)acetamido)-2-hydroxy-3,4-dihydro-2H-benzo[e][1,2]oxaborinine-8-carboxylic acid] | D (D represents a potency <10 μM) | > 128 | 2 to 4 (≈ 3.53 to 7.05 µM) | 2 to 4 (≈ 3.53 to 7.05 µM) | 32 to 64 (≈ 56.4 to 113 µM) | > 128 | 32 to 64 (≈ 56.4 to 113 µM) | 2 to 4 (≈ 3.53 to 7.05 µM) | > 128
2 | NC(=O)c1ccc(C(NC(=O)N2CCN(CCF)C(=O)C2=O)C(=O)N[C@H]2Cc3cccc(C(=O)O)c3OB2O)cc1O (stereo partly drawn) [Example 46, (3R)-3-(2-(4-carbamoyl-3-hydroxyphenyl)-2-(4-(2-fluoroethyl)-2,3-dioxopiperazine-1-carboxamido)acetamido)-2-hydroxy-3,4-dihydro-2H-benzo[e][1,2]oxaborinine-8-carboxylic acid] | D (D represents a potency <10 μM) | > 128 | 2 to 4 (≈ 3.42 to 6.83 µM) | 2 to 4 (≈ 3.42 to 6.83 µM) | 32 to 64 (≈ 54.7 to 109 µM) | > 128 | 32 to 64 (≈ 54.7 to 109 µM) | 2 to 4 (≈ 3.42 to 6.83 µM) | > 128
3 | NCCCN1CCN(C(=O)NC(C(=O)N[C@H]2Cc3cccc(C(=O)O)c3OB2O)c2ccc(C(N)=O)c(O)c2)C(=O)C1=O (stereo partly drawn) [Example 47, (3R)-3-(2-(4-(3-aminopropyl)-2,3-dioxopiperazine-1-carboxamido)-2-(4-carbamoyl-3-hydroxyphenyl)acetamido)-2-hydroxy-3,4-dihydro-2H-benzo[e][1,2]oxaborinine-8-carboxylic acid] | D (D represents a potency <10 μM) | > 128 | 8 to 16 (≈ 13.4 to 26.8 µM) | 2 to 4 (≈ 3.35 to 6.71 µM) | > 128 | > 128 | > 128 | 2 to 4 (≈ 3.35 to 6.71 µM) | 32 to 64 (≈ 53.7 to 107 µM)
4 | CCN1CCN(C(=O)NC(C(=O)N[C@H]2Cc3cccc(C(=O)O)c3OB2O)c2ccc(C(=O)O)c(OC)c2)C(=O)C1=O (stereo partly drawn) [Example 48, (3R)-3-(2-(4-carboxy-3-methoxyphenyl)-2-(4-ethyl-2,3-dioxopiperazine-1-carboxamido)acetamido)-2-hydroxy-3,4-dihydro-2H-benzo[e][1,2]oxaborinine-8-carboxylic acid] | D (D represents a potency <10 μM) | > 128 | 2 to 4 (≈ 3.43 to 6.87 µM) | 8 to 16 (≈ 13.7 to 27.5 µM) | > 128 | > 128 | > 128 | 8 to 16 (≈ 13.7 to 27.5 µM) | > 128
5 | O=C(Nc1ccccc1)NC(C(=O)N[C@H]1Cc2ccc(F)c(C(=O)O)c2OB1O)c1ncc(O)cc1F (stereo partly drawn) [Example 49, (3R)-7-fluoro-3-(2-(3-fluoro-5-hydroxypyridin-2-yl)-2-(3-phenylureido)acetamido)-2-hydroxy-3,4-dihydro-2H-benzo[e][1,2]oxaborinine-8-carboxylic acid] | D (D represents a potency <10 μM) | > 128 | 32 to 64 (≈ 62.5 to 125 µM) | > 128 | > 128 | > 128 | > 128 | 32 to 64 (≈ 62.5 to 125 µM) | > 128
6 | CCN1CCN(C(=O)NC(C(=O)N[C@H]2Cc3cccc(C(=O)O)c3OB2O)c2ccc(N)c(F)c2)C(=O)C1=O (stereo partly drawn) [Example 50, (3R)-3-(2-(4-amino-3-fluorophenyl)-2-(4-ethyl-2,3-dioxopiperazine-1-carboxamido)acetamido)-2-hydroxy-3,4-dihydro-2H-benzo[e][1,2]oxaborinine-8-carboxylic acid] | D (D represents a potency <10 μM) | > 128 | < 0.25 | 2 to 4 (≈ 3.69 to 7.39 µM) | 32 to 64 (≈ 59.1 to 118 µM) | > 128 | 32 to 64 (≈ 59.1 to 118 µM) | 2 to 4 (≈ 3.69 to 7.39 µM) | > 128
7 | N=C(N)NCCN1CCN(C(=O)NC(C(=O)N[C@H]2Cc3ccc(F)c(C(=O)O)c3OB2O)c2ncc(O)cc2F)C(=O)C1=O (stereo partly drawn) [Example 51, (3R)-7-fluoro-3-(2-(3-fluoro-5-hydroxypyridin-2-yl)-2-(4-(2-guanidinoethyl)-2,3-dioxopiperazine-1-carboxamido)acetamido)-2-hydroxy-3,4-dihydro-2H-benzo[e][1,2]oxaborinine-8-carboxylic acid] | D (D represents a potency <10 μM) | > 128 | 2 to 4 (≈ 3.23 to 6.47 µM) | 8 to 16 (≈ 12.9 to 25.9 µM) | 32 to 64 (≈ 51.8 to 104 µM) | 32 to 64 (≈ 51.8 to 104 µM) | 8 to 16 (≈ 12.9 to 25.9 µM) | 8 to 16 (≈ 12.9 to 25.9 µM) | > 128
8 | N=C(N)NC(C(=O)N[C@H]1Cc2ccc(F)c(C(=O)O)c2OB1O)c1ncc(O)cc1F (stereo partly drawn) [Example 52, (3R)-7-fluoro-3-(2-(3-fluoro-5-hydroxypyridin-2-yl)-2-guanidinoacetamido)-2-hydroxy-3,4-dihydro-2H-benzo[e][1,2]oxaborinine-8-carboxylic acid] | A (A represents a potency of >500 μM) | > 128 | > 128 | > 128 | > 128 | > 128 | > 128 | > 128 | > 128
9 | CCN1CCN(C(=O)NC(C(=O)N[C@H]2Cc3cccc(C(=O)O)c3OB2O)c2cccc(O)c2)C(=O)C1=O (stereo partly drawn) [Example 68, (3R)-3-(2-(4-ethyl-2,3-dioxopiperazine-1-carboxamido)-2-(3-hydroxyphenyl)acetamido)-2-hydroxy-3,4-dihydro-2H-benzo[e][1,2]oxaborinine-8-carboxylic acid] | D (D represents a potency <10 μM) | > 128 | < 0.25 | 2 to 4 (≈ 3.81 to 7.63 µM) | 32 to 64 (≈ 61 to 122 µM) | > 128 | 32 to 64 (≈ 61 to 122 µM) | 2 to 4 (≈ 3.81 to 7.63 µM) | > 128
10 | CCN1CCN(C(=O)NC(C(=O)N[C@H]2Cc3cccc(C(=O)O)c3OB2O)c2ccc(O)cc2O)C(=O)C1=O (stereo partly drawn) [Example 69, (3R)-3-(2-(2,4-dihydroxyphenyl)-2-(4-ethyl-2,3-dioxopiperazine-1-carboxamido)acetamido)-2-hydroxy-3,4-dihydro-2H-benzo[e][1,2]oxaborinine-8-carboxylic acid] | C (C represents a potency between 10 and 30 μM) | > 128 | < 0.25 | 2 to 4 (≈ 3.7 to 7.4 µM) | 32 to 64 (≈ 59.2 to 118 µM) | 32 to 64 (≈ 59.2 to 118 µM) | 32 to 64 (≈ 59.2 to 118 µM) | 32 to 64 (≈ 59.2 to 118 µM) | > 128
11 | CCN1CCN(C(=O)NC(C(=O)N[C@H]2Cc3cccc(C(=O)O)c3OB2O)c2ccc(O)cc2OC)C(=O)C1=O (stereo partly drawn) [Example 70, (3R)-3-(2-(4-ethyl-2,3-dioxopiperazine-1-carboxamido)-2-(4-hydroxy-2-methoxyphenyl)acetamido)-2-hydroxy-3,4-dihydro-2H-benzo[e][1,2]oxaborinine-8-carboxylic acid] | D (D represents a potency <10 μM) | > 128 | 0.5 to 1 (≈ 0.902 to 1.8 µM) | 2 to 4 (≈ 3.61 to 7.22 µM) | > 128 | > 128 | > 128 | 8 to 16 (≈ 14.4 to 28.9 µM) | > 128
